Results published in patent publication US20110152089A1, “HERBICIDAL COMPOSITIONS COMPRISING FLUFENACET” (Bayer CropScience AG, priority 2009, published 2011).

Key:
[1] = test system: POAAN; test: PO application, greenhouse (Table 2); type: in vivo, Poa annua; details: g of AS/ha: (A) 120, (B) 1200, (C) 140, (A)+(B)+(C) 120 + 1200 + 140, visual, about 3 weeks after application
Procedure: (§1) In the standard design of the test, seeds of various broad-leaved weed and weed grass biotypes (origins) were sown in a 8-13 cm diameter pot filled with natural soil of a standard field soil (loamy silt; non-sterile) and covered with a covering soil layer of about 1 cm. The pots were then cultivated in a greenhouse (12-16 h of light, temperature day 20-22° C., night 15-18° C.) until the time of application. The pots were treated on a laboratory track sprayer with spray liquors comprising the compositions according to the invention, mixtures of the prior art or components used individually. Application of the active compounds or active compound combinations formulated as WG, WP, EC or otherwise was carried out at the appropriate growth stages of the plants. The application rate for the spray application was 100-600 l of water/ha. After the treatment, the plants were returned to the greenhouses.
(§2) About 3 weeks after the application, the soil action or/and foliar action was assessed visually according to a scale of 0-100% in comparison to an untreated comparative group: 0%=no noticeable effect compared to the untreated comparative group; 100%=full effect compared to the untreated comparative group.
(§3) (notes: the term “seeds” also includes vegetative propagation forms such as, for example, rhizome pieces; abbreviations used: h light=hours of illumination, g of AS/ha=gram of active substance per hectare, l/ha=liter per hectare, S=sensitive, R=resistant) • 1. Pre-emergence action against weeds: seeds of various broad-leaved weed and weed grass biotypes (origins) were sown in a 8-13 cm diameter pot filled with natural soil of a standard field soil (loamy silt; non-sterile) and covered with a covering soil layer of about 1 cm. The pots were then cultivated in a greenhouse (12-16 h of light, temperature day 20-22° C., night 15-18° C.) until the time of application. […]

[2] = test system: STEME; test: Resistant biotypes, PE application, greenhouse (Table 6); type: in vivo, Stellaria media; details: g of AS/ha: (A) 90, (B) 300, (C) 140, (A)+(B)+(C) 120 + 600 + 140, iodosulfuron 10; for activity STEME resistant: resistant biotype; for activity STEME sensitive: sensitive biotype
Procedure: as §1, §2
(§4) (notes: the term “seeds” also includes vegetative propagation forms such as, for example, rhizome pieces; abbreviations used: h light=hours of illumination, g of AS/ha=gram of active substance per hectare, l/ha=liter per hectare, S=sensitive, R=resistant) • 1. Pre-emergence action against weeds: seeds of various broad-leaved weed and weed grass biotypes (origins) were sown in a 8-13 cm diameter pot filled with natural soil of a standard field soil (loamy silt; non-sterile) and covered with a covering soil layer of about 1 cm. The pots were then cultivated in a greenhouse (12-16 h of light, temperature day 20-22° C., night 15-18° C.) until the time of application. The pots were treated at the BBCH stage 00-10 of the seeds/plants on a laboratory track sprayer with spray liquors comprising the compositions according to the invention, mixtures or components used individually, as WG, WP, EC or other formulations. The application rate for the spray application was 100-600 l of water/ha. After the treatment, the plants were returned to the greenhouses and, when required, treated with fertilizer and watered. • 2. Post-emergence action against weeds: seeds of various broad-leaved weed and weed grass biotypes (origins) were sown in a 8-13 cm diameter pot filled with natural soil of a standard field soil (loamy silt; non-sterile) and covered with a covering soil layer of about 1 cm. The pots were then cultivated in a greenhouse (12-16 h of light, temperature day 20-22° C., night 15-18° C.) until the time of application. The pots were treated at various BBCH stages between 11-25 of the seeds/plants, i.e. generally between two to three weeks after the start of the cultivation, on a laboratory track sprayer with spray liquors comprising the compositions according to the invention, mixtures or components used individually, as WG, WP, EC or other formulations. The application rate for the spray application was 100-600 l of water/ha. After the treatment, the plants were returned to the greenhouses and, when required, treated with fertilizer and watered. • 3. Pre-emergence action against weeds with and without incorporation of active compound: seeds of various broad-leaved weed and weed grass biotypes (origins) were sown in a 8-13 cm diameter pot filled with natural soil of a standard field soil (loamy silt; non-sterile). […]

[3] = test system: LOLSS; test: as above; type: in vivo, Lolium species; details: g of AS/ha: (A) 90, (B) 300, (C) 140, (A)+(B)+(C) 120 + 600 + 140, iodosulfuron 10; for activity LOLSS resistant: resistant (EMR) biotype; for activity LOLSS sensitive: sensitive biotype
Procedure: as §1, §2
(§5) (notes: the term “seeds” also includes vegetative propagation forms such as, for example, rhizome pieces; abbreviations used: h light=hours of illumination, g of AS/ha=gram of active substance per hectare, l/ha=liter per hectare, S=sensitive, R=resistant) • 1. Pre-emergence action against weeds: seeds of various broad-leaved weed and weed grass biotypes (origins) were sown in a 8-13 cm diameter pot filled with natural soil of a standard field soil (loamy silt; non-sterile) and covered with a covering soil layer of about 1 cm. The pots were then cultivated in a greenhouse (12-16 h of light, temperature day 20-22° C., night 15-18° C.) until the time of application. The pots were treated at the BBCH stage 00-10 of the seeds/plants on a laboratory track sprayer with spray liquors comprising the compositions according to the invention, mixtures or components used individually, as WG, WP, EC or other formulations. The application rate for the spray application was 100-600 l of water/ha. After the treatment, the plants were returned to the greenhouses and, when required, treated with fertilizer and watered. • 2. Post-emergence action against weeds: seeds of various broad-leaved weed and weed grass biotypes (origins) were sown in a 8-13 cm diameter pot filled with natural soil of a standard field soil (loamy silt; non-sterile) and covered with a covering soil layer of about 1 cm. The pots were then cultivated in a greenhouse (12-16 h of light, temperature day 20-22° C., night 15-18° C.) until the time of application. […]

[4] = test system: HORVS; test: Different soil pH, PE application, crop selectivity, greenhouse (Table 8); type: in vivo, Hordeum vulgare, summer barley; details: for activity HORVS pH 7.4 (crop plant): soil pH 7.4, g of AS/ha: (A) 90, (B) 300, (C) 140, (A)+(B)+(C) 90 + 300 + 140; for activity HORVS pH 8.4 (crop plant): soil pH 8.4, g of AS/ha: (A) 90, (B) 300, (C) 140, (A)+(B)+(C) 90 + 300 + 140
Procedure: as §1, §2, §4

[5] = test system: HORVS; test: Different sowing depths, PE application, crop selectivity, greenhouse (Table 7); type: in vivo, Hordeum vulgare, summer barley; details: for activity HORVS 5 mm (crop plant): sowing depth 5 mm; for activity HORVS 20 mm (crop plant): sowing depth 20 mm
Procedure: as §1, §2, §4

[6] = test system: HORVS; test: PO application, crop selectivity, greenhouse (Table 2); type: in vivo, Hordeum vulgare, summer barley; details: g of AS/ha: (A) 120, (B) 1200, (C) 140, (A)+(B)+(C) 120 + 1200 + 140, visual, about 3 weeks after application
Procedure: as §1, §2, §3

[7] = test system: MATCH; test: Different sowing depths, PE application, greenhouse (Table 7); type: in vivo, Matricaria chamomilla; details: for activity MATCH 5 mm: sowing depth 5 mm; for activity MATCH 20 mm: sowing depth 20 mm
Procedure: as §1, §2, §4

[8] = test system: HORVS; test: PE soil application vs incorporation into the soil, crop selectivity, greenhouse (Table 1); type: in vivo, Hordeum vulgare, summer barley; details: g of AS/ha: (A) 90, (B) 300, (C) 70, (A)+(B)+(C) 90 + 300 + 70, visual, about 3 weeks after application
Procedure: as §1, §2, §4

[9] = test system: STEME; test: PE soil application vs incorporation into the soil, greenhouse (Table 1); type: in vivo, Stellaria media; details: g of AS/ha: (A) 90, (B) 300, (C) 70, (A)+(B)+(C) 90 + 300 + 70, visual, about 3 weeks after application
Procedure: as §1, §2, §4

[10] = test system: MATCH; test: PE application with different irrigation, greenhouse (Table 4); type: in vivo, Matricaria chamomilla; details: g of AS/ha: (A) 90, (B) 300, (C) 140, (A)+(B)+(C) 90 + 300 + 140
Procedure: as §1, §2, §4

[11] = test system: MATCH; test: Different soil pH, PE application, greenhouse (Table 8); type: in vivo, Matricaria chamomilla; details: for activity MATCH pH 7.4: soil pH 7.4, g of AS/ha: (A) 90, (B) 300, (C) 140, (A)+(B)+(C) 90 + 300 + 140; for activity MATCH pH 8.4: soil pH 8.4, g of AS/ha: (A) 90, (B) 300, (C) 140, (A)+(B)+(C) 90 + 300 + 140
Procedure: as §1, §2, §4

[12] = test system: TRZAW; test: Different soil pH, PE application, crop selectivity, greenhouse (Table 8); type: in vivo, Triticum aestivum, winter wheat; details: for activity TRZAW pH 7.4 (crop plant): soil pH 7.4, g of AS/ha: (A) 90, (B) 300, (C) 140, (A)+(B)+(C) 90 + 300 + 140; for activity TRZAW pH 8.4 (crop plant): soil pH 8.4, g of AS/ha: (A) 90, (B) 300, (C) 140, (A)+(B)+(C) 90 + 300 + 140
Procedure: as §1, §2, §4

[13] = test system: AVEFA; test: PE application vs pre-sowing application, greenhouse (Table 3); type: in vivo, Avena fatua; details: g of AS/ha: (A) 90, (B) 300, (C) 140, (A)+(B)+(C) 90 + 300 + 140
Procedure: as §1, §2, §5

[14] = test system: VIOAR; test: Activity with different soil types, greenhouse (Table 5); type: in vivo, Viola arvensis; details: g of AS/ha: (A) 90, (B) 300, (C) 140, (A)+(B)+(C) 90 + 300 + 140; for activity VIOAR IU soil: IU soil (loamy silt standard field soil); for activity V18 VIOAR IU/EC73 soil: IU/EC73 soil (heavy soil, higher organic substance)
Procedure: as §1, §2, §4

[15] = g of AS/ha: (A) 90, (B) 300, (C) 140, (A)+(B)+(C) 90 + 300 + 140
[16] = g of AS/ha: (A) 90, (B) 300, (C) 140, (A)+(B)+(C) 90 + 300 + 140, listed as trifluralin
[17] = application 7 days prior to sowing

SMILES: CCCN(CCC)c1c([N+](=O)[O-])cc(C(F)(F)F)cc1[N+](=O)[O-] [(B) trifluralin, 2,6-dinitro-N,N-dipropyl-4-(trifluoromethyl)benzenamine]
- activity POAAN [1]: 40%
- activity STEME resistant [2]: 20%
- activity STEME sensitive [2]: 20%
- activity LOLSS resistant [3]: 83%
- activity LOLSS sensitive [3]: 98%
- activity HORVS pH 7.4 (crop plant) [4]: 20%
- activity HORVS pH 8.4 (crop plant) [4]: 10%
- activity HORVS 5 mm (crop plant) [5, 15]: 25%
- activity HORVS 5 mm (crop plant) [5, 16]: 70%
- activity HORVS 20 mm (crop plant) [5, 15]: 20%
- activity HORVS 20 mm (crop plant) [5, 16]: 30%
- activity HORVS (crop plant) [6]: 20%
- activity MATCH 5 mm [7, 15]: 0%
- activity MATCH 5 mm [7, 16]: 100%
- activity MATCH 20 mm [7, 15]: 30%
- activity MATCH 20 mm [7, 16]: 70%
- activity HORVS (crop plant) ([8]; PE application): 0%
- activity HORVS (crop plant) ([8]; incorporation into the soil): 35%
- activity STEME ([9]; PE application): 10%
- activity STEME ([9]; incorporation into the soil): 70%
- activity MATCH ([10]; irrigation from above): 0%
- activity MATCH ([10]; irrigation from below): 40%
- activity MATCH pH 7.4 [11]: 0%
- activity MATCH pH 8.4 [11]: 0%
- activity TRZAW pH 7.4 (crop plant) [12]: 0%
- activity TRZAW pH 8.4 (crop plant) [12]: 0%
- activity AVEFA ([13]; PE application): 0%
- activity AVEFA [13, 17]: 60%
- activity VIOAR IU soil [14]: 77%
- activity V18 VIOAR IU/EC73 soil [14]: 0%

SMILES: CSc1nnc(C(C)(C)C)c(=O)n1N [(C) metribuzin, 4-amino-6-(1,1-dimethyl-ethyl)-3-(methylthio)-1,2,4-triazin-5-(4H)-one]
- activity POAAN [1]: 79%
- activity STEME resistant [2]: 98%
- activity STEME sensitive [2]: 100%
- activity LOLSS resistant [3]: 70%
- activity LOLSS sensitive [3]: 70%
- activity HORVS pH 7.4 (crop plant) [4]: 40%
- activity HORVS pH 8.4 (crop plant) [4]: 50%
- activity HORVS 5 mm (crop plant) [5, 15]: 70%
- activity HORVS 20 mm (crop plant) [5, 15]: 30%
- activity HORVS (crop plant) [6]: 70%
- activity MATCH 5 mm [7, 15]: 100%
- activity MATCH 20 mm [7, 15]: 70%
- activity HORVS (crop plant) ([8]; PE application): 30%
- activity HORVS (crop plant) ([8]; incorporation into the soil): 70%
- activity STEME ([9]; PE application): 75%
- activity STEME ([9]; incorporation into the soil): 0%
- activity MATCH ([10]; irrigation from above): 0%
- activity MATCH ([10]; irrigation from below): 60%
- activity MATCH pH 7.4 [11]: 100%
- activity MATCH pH 8.4 [11]: 98%
- activity TRZAW pH 7.4 (crop plant) [12]: 70%
- activity TRZAW pH 8.4 (crop plant) [12]: 80%
- activity AVEFA ([13]; PE application): 70%
- activity AVEFA [13, 17]: 0%
- activity VIOAR IU soil [14]: 50%
- activity V18 VIOAR IU/EC73 soil [14]: 0%
